From patent publication US20230024119A1, “COMBINED USE OF SODIUM TRANS-[TETRACHLORIDOBIS(1H-INDAZOLE)RUTHENATE(III)] AND ETOMOXIR FOR TREATING CANCERS” (Bold Therapeutics, Inc., priority 2019, published 2023)

Assays:
[1] = test system: HCT116 and Capan1 cell models with acquired KP1339 resistance; assay: Sensitivity of KP1339-resistant cell models to lipid-modulating agents; type: cell-based
Procedure: (§1) (also referred to herein as KP1339 or BOLD-100 or IT139). […] Lipid storage compartments (lipid droplets) were visualized fluorescently with Bodipy 493/503. Utilizing specific pharmacological inhibitors, the role of altered lipid metabolism components in KP1339 resistance was dissected. Mitochondrial oxygen consumption rate (OCR) and extracellular acidification rate (ECAR) were assessed by Seahorse XF analysis. Lipidomics and consecutive proteomics analysis were used to further characterize the resistance phenotype.

[2] = test system: sensitive HCT116 cells
Procedure: as §1

[3] = test system: KP1339-resistant cells; conditions: upon KP1339 treatment
Procedure: as §1

Structure (SMILES)	sensitivity towards lipid-modulating agents [1]	amount of Compound A present in the lyophilized product (cooling the solution during the formulation process)	degradation in water (in water)	extracellular acidification rate (ECAR) ([2]; Seahorse Mito Stress Test, sensitive HCT116 cells)	mitochondrial oxygen consumption rate (OCR) ([2]; upon KP1339 treatment, parental cells)	mitochondrial oxygen consumption rate (OCR) [3]
CCCCCCCCCCC[C@@H](C[C@@H]1OC(=O)[C@H]1CCCCCC)OC(=O)[C@H](CC(C)C)NC=O [orlistat]	hypersensitive					
[Cl][Ru]([Cl])([Cl])[Cl].[Na+].c1ccc2[nH]ncc2c1.c1ccc2[nH]ncc2c1 [KP1339, Sodium trans-[tetrachloridobis(1H-indazole)ruthenate(III)]]		greatly reduce the amount of Compound A	can degrade in water to Compound A	massively reduced ECAR	reduced in parental	stayed unchanged in resistant cells
CCC/C=C/C/C=C/C=C/C=N/NN=O [triacsin C]	hypersensitive					
